Values after ≈ are worked out from the molar mass of the structure shown.
What was measured:
gram-positive bacteria = experiment: In vitro antibacterial activity against gram-positive bacteria (in words); type: cell-based
Description: (§1) The minimum inhibitory concentration (MIC) of the compound (I) was determined by an agar dilution technique (the standard method of Japan Society of Chemotherapy) against standard strains of gram-positive and gram-negative bacteria.

[1] = tested on: Staphylococcus aureus Smith; experiment: In vivo antibacterial activity, systemic infection in mice; parameters: species or system mice (male, ICR)
Description: (§2) The in vivo antibacterial activity of the compound (I) was determined in systemic infection in mice. The systemic infections were produced in male mice ICR (body weight, 19±2 g) by inoculating intraperitoneally with Staphylococcus aureus Smith and E. coli ML4707. The compounds were administered orally in divided doses at 0 and 4 hrs. after infection. The therapeutic effect of drugs was judged from the number of mice surviving after 7 days of observation. A comparison of in vivo antibacterial activity was made on the basis of the […] effective dose (ED50) calculated by the method of Litchfield and Wilcoxon.

E. coli ML4707 = experiment: as above; parameters: species or system mice (male, ICR); conditions: Escherichia coli, ML4707, 168 h; mice, oral at 0 and 4 hrs. after infection; challenge 1.2 × 10^7 cells/animal in saline; 7 days survival; read-out: ED50
Description: as §2

[2] = Tissue levels after a single oral administration in mice (microbiological assay); type: in vivo; conditions: mouse; for concentration at 0.5 h / concentration at 1 h / concentration at 2 h / concentration at 4 h / concentration at 6 h: 50 mg/kg oral
Description: (§3) Tissue levels of the compound (I) after a single oral administration of 50 mg/kg in mice and rats
(§4) Tissue levels of the compound (I) were determined by micro-biological assay which employed the thin layer cup method with Bacillus subtilis ATCC6633 as the test organism. Serum and tissue levels of the compound (I) were calculated with the standard curve prepared in normal serum of the test animal species and M/15 phosphate buffer (pH 7.5), respectively.

[3] = Metabolism when administered to animals; type: in vivo
[4] = Tissue levels after a single oral administration in rats (microbiological assay); type: in vivo; conditions: rat; for concentration at 0.5 h / concentration at 1 h / concentration at 2 h / concentration at 4 h / concentration at 6 h: 50 mg/kg oral
Description: as §3, §4

[5] = tested on: Enterobacter cloacae IID977; experiment: In vitro antibacterial activity (MIC, agar dilution); type: cell-based; conditions: inoculum 10^8 cells/ml
Description: as §1
(§5) Inoculum size: 10^8 cells/ml

P. mirabilis IID994 = experiment: as above; type: cell-based; conditions: Proteus mirabilis, inoculum 10^8 cells/ml
Description: as §1, §5

[6] = tested on: Yersinia enterocolitica IID981; experiment: as above; type: cell-based; conditions: inoculum 10^8 cells/ml
Description: as §1, §5

[7] = tested on: Salmonella enteritidis IID604; experiment: as above; type: cell-based; conditions: Salmonella enterica; Salmonella enteritidis IID604; inoculum 10^8 cells/ml; read-out: MIC
Description: as §1, §5

[8] = tested on: Serratia marcescens IID618; experiment: as above; type: cell-based; conditions: inoculum 10^8 cells/ml
Description: as §1, §5

[9] = tested on: Pseudomonas aeruginosa V-1; experiment: as above; type: cell-based; conditions: V1; Pseudomonas aeruginosa V-1; inoculum 10^8 cells/ml; read-out: MIC
Description: as §1, §5

[10] = tested on: Staphylococcus aureus 209P; experiment: as above; type: cell-based; conditions: Staphylococcus aureus 209P; inoculum 10^8 cells/ml; read-out: MIC
Description: as §1, §5

[11] = tested on: Bacillus subtilis PCI 219; experiment: as above; type: cell-based; conditions: PCI219; Bacillus subtilis PCI 219; inoculum 10^8 cells/ml; read-out: MIC
Description: as §1, §5

E. coli NIHJ JC-2 = experiment: as above; type: cell-based; conditions: Escherichia coli, NIHJJC2; E. coli NIHJ JC-2; inoculum 10^8 cells/ml; read-out: MIC
Description: as §1, §5

[12] = tested on: Klebsiella pneumoniae IFO3512; experiment: as above; type: cell-based; conditions: Klebsiella pneumoniae IFO3512; inoculum 10^8 cells/ml; read-out: MIC
Description: as §1, §5

Shigella sonnei IID969 = experiment: as above; type: cell-based; conditions: inoculum 10^8 cells/ml
Description: as §1, §5

[13] = tested on: Streptococcus pyogenes IID692; experiment: as above; type: cell-based; conditions: Streptococcus pyogenes IID692; inoculum 10^8 cells/ml; read-out: MIC
Description: as §1, §5

S. faecalis IID682 = experiment: as above; type: cell-based; conditions: Enterococcus faecalis; S. faecalis IID682; inoculum 10^8 cells/ml; read-out: MIC
Description: as §1, §5

P. aeruginosa IFO12689 = experiment: as above; type: cell-based; conditions: Pseudomonas aeruginosa; P. aeruginosa IFO12689; inoculum 10^8 cells/ml; read-out: MIC
Description: as §1, §5

S. pneumoniae IID552 = experiment: as above; type: cell-based; conditions: Streptococcus pneumoniae; S. pneumoniae IID552; inoculum 10^8 cells/ml; read-out: MIC
Description: as §1, §5

[14] = tested on: S. aureus IID670 (Terajima); experiment: as above; type: cell-based; conditions: Staphylococcus aureus; S. aureus IID670 (Terajima); inoculum 10^8 cells/ml; read-out: MIC
Description: as §1, §5

[15] = tested on: Citrobacter freundii IID976; experiment: as above; type: cell-based; conditions: inoculum 10^8 cells/ml
Description: as §1, §5

[16] = kidney, read-out: Kidney concentration
[17] = liver, read-out: Liver concentration
[18] = lung, read-out: Lung concentration
[19] = serum, read-out: Serum concentration

CCn1cc(C(=O)O)c(=O)c2cc(F)c(N3CCN(Cc4ccc(N)cc4)CC3)c(F)c21 [compound (I), 7-[4-(p-aminobenzyl)-1-piperazinyl]-1-ethyl-6,8-difluoro-1,4-dihydro-4-oxoquinoline-3-carboxylic acid]
Antibacterial activity against gram-positive bacteria containing Streptococcus spp., in words (gram-positive bacteria): more potent against gram-positive bacteria containing Streptococcus spp. | Potency superior to nalidixic acid (in vivo) ([1]; S. aureus Smith, versus nalidixic acid): 172 times | In vivo antibacterial activity, in words ([1]; S. aureus Smith, versus nalidixic acid and pipemidic acid): significantly more effective than that of nalidixic acid and pipemidic acid | Potency superior to pipemidic acid (in vivo) ([1]; S. aureus Smith, versus pipemidic acid): 62 times | ED50 ([1]; Staphylococcus aureus, 168 h, mice, oral at 0 and 4 hrs. after infection, challenge 2.4 × 10^5 cells/animal in BHI containing mucin, 7 days survival, read-out: ED50): 3.7 mg/kg | ED50 (E. coli ML4707): 13.8 mg/kg | concentration at 0.5 h [2, 16]: 13000 ng/mL | concentration at 1 h [2, 16]: 13000 ng/mL | concentration at 2 h [2, 16]: 7800 ng/mL | concentration at 4 h [2, 16]: 4600 ng/mL | concentration at 6 h [2, 16]: 4600 ng/mL | concentration at 0.5 h [2, 17]: 22500 ng/mL | concentration at 1 h [2, 17]: 17500 ng/mL | concentration at 2 h [2, 17]: 12000 ng/mL | concentration at 4 h [2, 17]: 9000 ng/mL | concentration at 6 h [2, 17]: 5800 ng/mL | concentration at 0.5 h [2, 18]: 12800 ng/mL | concentration at 1 h [2, 18]: 9500 ng/mL | concentration at 2 h [2, 18]: 5500 ng/mL | concentration at 4 h [2, 18]: 4300 ng/mL | concentration at 6 h [2, 18]: 2800 ng/mL | concentration at 0.5 h [2, 19]: 8600 ng/mL | concentration at 1 h [2, 19]: 6500 ng/mL | concentration at 2 h [2, 19]: 5000 ng/mL | concentration at 4 h [2, 19]: 2700 ng/mL | concentration at 6 h [2, 19]: 1800 ng/mL | Cmax ([2]; serum, mice, single oral 50 mg/kg, read-out: Peak serum level): 8600 ng/mL | Metabolism, in words [3]: metabolized in part to 1-ethyl-6,8-difluoro-1,4-dihydro-4-oxo-7-(1-piperazinyl)quinoline-3-carboxylic acid | concentration at 0.5 h [4, 16]: 6600 ng/mL | concentration at 1 h [4, 16]: 6800 ng/mL | concentration at 2 h [4, 16]: 2700 ng/mL | concentration at 4 h [4, 16]: 1000 ng/mL | concentration at 6 h [4, 16]: 300 ng/mL | concentration at 0.5 h [4, 17]: 14000 ng/mL | concentration at 1 h [4, 17]: 15400 ng/mL | concentration at 2 h [4, 17]: 6200 ng/mL | concentration at 4 h [4, 17]: 2200 ng/mL | concentration at 6 h [4, 17]: 800 ng/mL | concentration at 0.5 h [4, 18]: 6000 ng/mL | concentration at 1 h [4, 18]: 8600 ng/mL | concentration at 2 h [4, 18]: 2100 ng/mL | concentration at 4 h [4, 18]: 600 ng/mL | concentration at 0.5 h [4, 19]: 4800 ng/mL | concentration at 1 h [4, 19]: 5300 ng/mL | concentration at 2 h [4, 19]: 1200 ng/mL | concentration at 4 h [4, 19]: 200 ng/mL | concentration at 6 h [4, 19]: 200 ng/mL | Cmax ([4]; serum, rats, single oral 50 mg/kg, read-out: Peak serum level): 5300 ng/mL | MIC [5]: 1.56 µg/mL (≈ 3.53 µM) | MIC (P. mirabilis IID994): 1.56 µg/mL (≈ 3.53 µM) | MIC [6]: 1.56 µg/mL (≈ 3.53 µM) | MIC [7]: 1.56 µg/mL (≈ 3.53 µM) | MIC [8]: 3.13 µg/mL (≈ 7.07 µM) | MIC [9]: 12.5 µg/mL (≈ 28.3 µM) | MIC [10]: 0.1 µg/mL (≈ 0.226 µM) | MIC [11]: 0.1 µg/mL (≈ 0.226 µM) | MIC (E. coli NIHJ JC-2): 0.2 µg/mL (≈ 0.452 µM) | MIC [12]: 0.1 µg/mL (≈ 0.226 µM) | MIC (Shigella sonnei IID969): 0.39 µg/mL (≈ 0.881 µM) | MIC [13]: 0.78 µg/mL (≈ 1.76 µM) | MIC (S. faecalis IID682): 0.78 µg/mL (≈ 1.76 µM) | MIC (P. aeruginosa IFO12689): 25 µg/mL (≈ 56.5 µM) | MIC (S. pneumoniae IID552): 0.39 µg/mL (≈ 0.881 µM) | MIC [14]: 0.2 µg/mL (≈ 0.452 µM) | MIC [15]: 1.56 µg/mL (≈ 3.53 µM)

Source: patent US4429127A, “Quinoline carboxylic acid derivative” (Kyorin Pharmaceutical Co., Ltd., priority 1981, dated 1984)
